# Results: patent publication US20240391930A1, “SPIROCYCLIC BICYCLIC MODULATORS OF CHOLESTEROL BIOSYNTHESIS AND THEIR USE FOR PROMOTING REMYELINATION” (GENENTECH, INC., priority 2021, published 2024)
# How the values were obtained:
# human EBP = target: T1, human EBP (Homo sapiens, UniProt Q15125); test: hEBP SPA competition binding assay ([3H]-Ifenprodil)
# T1 construct: expressed in transfected cells; host or cells: human embryonic kidney 293 cells
# Protocol: Membrane preparation: To examine compound binding affinity to EBP, human EBP was overexpressed in human embryonic kidney 293 cells. Cell pellet was lysed in 10 times weight binding buffer (50 mM Tris, 5 mM MgCl2, 0.1 mM EDTA, lx protease inhibitor cocktail, pH 7.5) on ice by using a dounce homogenizer. The solution was centrifuged at 25,000 g for 50 min at 4° C. The membrane pellet was re-suspended in binding buffer and run through a 25⅝ gauge needle. After checking the concentration by Bradford assay, the whole cell membrane solution was adjusted to 20 mg/mL and stored at −80° C.
# This binding solution was centrifuged at 400 g for 5 minutes to collect the bead/membrane mixture. After re-suspending the pellet in binding buffer at the same calculated volume with 0.01% BSA (Sigma A1933), the bead/membrane mixture was added in 384-well low-binding surface plate (PerkinElmer Cat #6057480) at 25 µl/well. Radioligand at different concentrations with and without the non-radio-labeled same ligand 5 uM (for nonspecific and total signal, respectively) was added to bring final volume to 50 µl/well with DMSO concentration at 0.1%. At equilibrium (3 hours after ligand addition), radiometric signal CPM was counted by using a Microbeta2 microplate counter (Perkinelmer).
# A pre-incubated bead/membrane mixture was added in compound plate at 0.3 mg beads and […] membrane per well. […] At equilibrium (3 hours after ligand addition), radiometric signal was counted as described above. The percentage inhibition of compound at each testing concentration was calculated by normalizing each condition's CPM readout to full block (5 uM non-radiolabeled ligand) and non-block (DMSO) control conditions. Compound binding inhibition IC50 was determined by nonlinear regression fitting of percentage inhibition plot against compound concentration. Compound Ki was calculated from the equation Ki=IC50/(1+[L]/Kd), which [L] was radioligand concentration used in assay. All tests had N bigger or equal to 2.
# EpiSC-derived OPCs = test: In vitro phenotypic screening of OPCs (MBP high-content imaging); assay type: cell-based; conditions: Mus musculus, 72 h; percentage of MBP-positive oligodendrocytes, 3 days, 0.5 nM to 1000 nM; read-out: OPC EC50
# Summary of the method: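 Mouse EpiSC-derived OPCs seeded at 150,000/cm^2 without growth factors, treated 3 days at 37° C with 8-point doses from 1000 nM to 0.5 nM. Fixed, MBP immunostained with DAPI; high-content imaging gives percentage MBP-positive oligodendrocytes.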
# T1 sequence (Q15125 whole entry): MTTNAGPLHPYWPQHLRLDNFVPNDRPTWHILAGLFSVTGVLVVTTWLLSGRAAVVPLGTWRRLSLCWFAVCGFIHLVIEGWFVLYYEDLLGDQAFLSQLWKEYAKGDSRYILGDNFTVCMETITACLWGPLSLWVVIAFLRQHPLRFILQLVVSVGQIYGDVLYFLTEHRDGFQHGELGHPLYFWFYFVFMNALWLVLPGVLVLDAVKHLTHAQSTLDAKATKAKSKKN
Structure (SMILES),Ki (human EBP) [µM],EC50 (EpiSC-derived OPCs) [µM]
"CC(C)n1nc(-c2cncc(C(F)(F)F)c2)cc1[C@H]1[C@@H]2C[C@H](N3CCC4(C3)CS(=O)(=O)C4)C[C@@H]21 (single isomer, unassigned) [Compound 4]",0.031,0.014
"CC(C)n1nc(-c2cncc(C(F)(F)F)c2)cc1[C@H]1[C@@H]2C[C@@H](N3CCC4(CC3)CS(=O)(=O)C4)C[C@@H]21 (single isomer, unassigned) [Compound 38]",0.026,0.0049
"CC(C)n1nc(-c2cccc(C(F)(F)F)c2)cc1[C@H]1[C@@H]2C[C@@H](N3CCC4(C3)CS(=O)(=O)C4)C[C@@H]21 (single isomer, unassigned) [Compound 2]",0.038,0.0009
"CC(C)n1nc(-c2ccnc(C(F)(F)F)n2)cc1[C@H]1[C@@H]2C[C@@H](N3CCC4(CC3)CS(=O)(=O)C4)C[C@@H]21 (single isomer, unassigned) [Compound 49]",0.024,0.0046
"CC(C)n1nc(-c2cncc(C(F)(F)F)c2)cc1[C@H]1[C@@H]2C[C@H](N3CC[C@@]4(CCS(=O)(=O)C4)C3)C[C@@H]21 (single isomer, unassigned) [Compound 9*]",0.026,0.0038
"CC(C)n1nc(-c2cncc(C(F)(F)F)c2)cc1[C@H]1[C@@H]2C[C@H](N3CC4(C3)CS(=O)(=O)C4)C[C@@H]21 (single isomer, unassigned) [Compound 99*]",0.058,0.3
"CC(C)n1nc(-c2cncc(C(F)(F)F)c2)nc1[C@H]1[C@@H]2C[C@@H](N3CCC4(C3)CS(=O)(=O)C4)C[C@@H]21 (single isomer, unassigned) [Compound 16]",0.02,0.024
"CC(C)n1nc(-c2ccnc(C(F)(F)F)n2)cc1[C@H]1[C@@H]2C[C@H](N3CCC4(CC3)CS(=O)(=O)C4)C[C@@H]21 (single isomer, unassigned) [Compound 50]",0.018,0.069
"C=C(c1cc([C@H]2[C@@H]3C[C@H](N4CCC5(C4)CS(=O)(=O)C5)C[C@@H]32)n(C(C)C)n1)C(F)(F)F [Compound 31, 6-((1R,3r,5S,6r)-6-(1-Isopropyl-3-(3,3,3-trifluoroprop-1-en-2-yl)-1H-pyrazol-5-yl)bicyclo[3.1.0]hexan-3-yl)-2-thia-6-azaspiro[3.4]octane 2,2-dioxide]",0.037,0.03
"CC(C)n1nc(-c2cncc(C(F)(F)F)c2)nc1[C@H]1[C@@H]2C[C@H](N3CCC4(C3)CS(=O)(=O)C4)C[C@@H]21 (single isomer, unassigned) [Compound 17]",0.067,0.42
"CC(C)n1nc(-c2cccc(C(F)(F)F)n2)cc1[C@H]1[C@@H]2C[C@H](N3CCC4(CC3)CS(=O)(=O)C4)C[C@@H]21 (single isomer, unassigned) [Compound 48]",0.015,0.015
"CC(C)n1nc(-c2cncc(C(F)(F)F)c2)cc1[C@H]1[C@@H]2C[C@H](N3CCC4(CC3)CS(=O)(=O)C4)C[C@@H]21 (single isomer, unassigned) [Compound 40]",0.026,0.015
"CC(C)n1nc(-c2ccnc(C(F)(F)F)n2)cc1[C@H]1[C@@H]2C[C@@H](N3CCC4(C3)CS(=O)(=O)C4)C[C@@H]21 [Compound 28, 6-((1R,3s,5S,6r)-6-(1-isopropyl-3-(2-(trifluoromethyl)pyrimidin-4-yl)-1H-pyrazol-5-yl)bicyclo[3.1.0]hexan-3-yl)-2-thia-6-azaspiro[3.4]octane 2,2-dioxide]",0.022,0.039
"CCn1nc(-c2cncc(C(F)(F)F)c2)cc1[C@H]1[C@@H]2C[C@H](N3CCC4(C3)CS(=O)(=O)C4)C[C@@H]21 (single isomer, unassigned) [Compound 25]",0.026,0.0042
"CC(C)n1nc(-c2ccnc(C(F)(F)F)n2)cc1[C@H]1[C@@H]2C[C@H](N3CCC4(C3)CS(=O)(=O)C4)C[C@@H]21 [Compound 15, 6-((1R,3r,5S,6r)-6-(1-Isopropyl-3-(2-(trifluoromethyl)pyrimidin-4-yl)-1H-pyrazol-5-yl)bicyclo[3.1.0]hexan-3-yl)-2-thia-6-azaspiro[3.4]octane 2,2-dioxide]",0.019,0.0066
"CC(C)n1nc(-c2ccnc(C(F)(F)F)c2)cc1[C@H]1[C@@H]2C[C@@H](N3CCC4(C3)CS(=O)(=O)C4)C[C@@H]21 (single isomer, unassigned) [Compound 18]",0.03,0.015
"CC(C)n1nc(-c2cc(C(F)(F)F)ccn2)cc1[C@H]1[C@@H]2C[C@@H](N3CCC4(C3)CS(=O)(=O)C4)C[C@@H]21 (single isomer, unassigned) [Compound 20]",0.062,0.039
"CC(C)n1nc(-c2cccc(C(F)(F)F)n2)cc1[C@H]1[C@@H]2C[C@@H](N3CCC4(C3)CS(=O)(=O)C4)C[C@@H]21 (single isomer, unassigned) [Compound 11]",0.036,0.014
"CC(C)n1nc(-c2cncc(C(F)(F)F)c2)cc1[C@H]1[C@@H]2C[C@@H](N3CC4(C3)CS(=O)(=O)C4)C[C@@H]21 (single isomer, unassigned) [Compound 98*]",0.051,0.3
"CC(C)n1nc(-c2cnc(C(F)(F)F)nc2)cc1[C@H]1[C@@H]2C[C@H](N3CCC4(C3)CS(=O)(=O)C4)C[C@@H]21 [Compound 6, 6-((1R,3r,5S,6r)-6-(1-Isopropyl-3-(2-(trifluoromethyl)pyrimidin-5-yl)-1H-pyrazol-5-yl)bicyclo[3.1.0]hexan-3-yl)-2-thia-6-azaspiro[3.4]octane 2,2-dioxide]",0.019,0.2
"CC(C)n1nc(-c2cccc(C(F)(F)F)n2)cc1[C@H]1[C@@H]2C[C@H](N3CCC4(C3)CS(=O)(=O)C4)C[C@@H]21 (single isomer, unassigned) [Compound 12]",0.017,0.0097
"CC(C)n1nc(-c2ccc(C(F)(F)F)cc2)cc1[C@H]1[C@@H]2C[C@H](N3CCC4(C3)CS(=O)(=O)C4)C[C@@H]21 [Compound 5, 6-((1R,3r,5S,6r)-6-(1-Isopropyl-3-(4-(trifluoromethyl)phenyl)-1H-pyrazol-5-yl)bicyclo[3.1.0]hexan-3-yl)-2-thia-6-azaspiro[3.4]octane 2,2-dioxide]",0.022,0.008
"CC(C)n1nc(C(F)(F)F)cc1[C@H]1[C@@H]2C[C@H](N3CCC4(C3)CS(=O)(=O)C4)C[C@@H]21 (single isomer, unassigned) [Compound 23]",0.013,0.053
"CC(C)n1nc(C(F)(F)F)cc1[C@H]1[C@@H]2C[C@@H](N3CCC4(C3)CS(=O)(=O)C4)C[C@@H]21 (single isomer, unassigned) [Compound 22]",0.03,0.053
"CC(C)n1nc(-c2cc(C(F)(F)F)ccn2)cc1[C@H]1[C@@H]2C[C@H](N3CCC4(C3)CS(=O)(=O)C4)C[C@@H]21 (single isomer, unassigned) [Compound 21]",0.043,0.0066
"CC(C)n1nc(-c2ccnc(C(F)(F)F)c2)cc1[C@H]1[C@@H]2C[C@H](N3CCC4(C3)CS(=O)(=O)C4)C[C@@H]21 (single isomer, unassigned) [Compound 19]",0.016,0.013
"CCn1nc(-c2cncc(C(F)(F)F)c2)cc1[C@H]1[C@@H]2C[C@@H](N3CCC4(C3)CS(=O)(=O)C4)C[C@@H]21 (single isomer, unassigned) [Compound 24]",0.03,0.0093
"CC(C)n1nc(-c2cccc(C(F)(F)F)n2)cc1[C@H]1[C@@H]2C[C@@H](N3CCC4(CC3)CS(=O)(=O)C4)C[C@@H]21 (single isomer, unassigned) [Compound 47]",0.019,0.0017
"CC(C)n1nc(C2(C(F)(F)F)CC2)cc1[C@H]1[C@@H]2C[C@H](N3CCC4(C3)CS(=O)(=O)C4)C[C@@H]21 [Compound 32, 6-((1R,3r,5S,6r)-6-(1-Isopropyl-3-(1-(trifluoromethyl)cyclopropyl)-1H-pyrazol-5-yl)bicyclo[3.1.0]hexan-3-yl)-2-thia-6-azaspiro[3.4]octane 2,2-dioxide]",0.023,0.029
